Assay results taken from US20250145715A1, “B7-H3 TARGETING FUSION PROTEINS AND METHODS OF USE THEREOF” (GT Biopharma, Inc., priority 2021, published 2025).

Key:
[1] = test system: OVCAR8 ovarian cancer cells; test: NK cell CD107a / IFNγ flow cytometry against OVCAR8; assay type: cell-based, human; settings: 30 nM, E:T 2:1, 4 hrs; vs no treatment and rhIL-15 alone
Experimental: FIG. 29A is a graph illustrating pooled proportion of NK cells from healthy donors expressing CD107a+ (degranulation) against OVCAR8 and MA148 targets. FIG. 29B is a graph illustrating pooled proportion of NK cells from healthy donors expressing IFNγ cytokine production against OVCAR8 and MA148 targets.
(§1) Healthy donor or ovarian cancer PBMC cells were incubated with ovarian tumor targets at 2:1 E:T ratio for 4 hrs with 30 nM TriKE or control condition. FIG. 30A is a graph illustrating pooled proportion of NK cells from healthy donors expressing CD107a+ (degranulation) against OVCAR8 targets (N=8). FIG. 30B is a graph illustrating pooled proportion of NK cells from healthy donors expressing IFNγ cytokine production against OVCAR8 targets (N=8). FIG. 30C is a graph illustrating pooled proportion of NK cells from healthy donors expressing CD107a+ (degranulation) against OVCAR3 targets (N=4). FIG. 30D is a graph illustrating pooled proportion of NK cells from healthy donors expressing IFNγ cytokine production against OVCAR3 targets (N=4). FIG. 30E is a graph illustrating pooled proportion of NK cells from healthy donors expressing CD107a+ (degranulation) against OVCAR5 targets (N=7). FIG. 30F is a graph illustrating pooled proportion of NK cells from healthy donors expressing IFNγ cytokine production against OVCAR5 targets (N=7). […] FIG. 30I is a graph illustrating that tumor killing was evaluated using IncuCyte imaging assay. […] The percentage of Live (Nuclight Red+Caspase 3/7−) tumor cells was quantified over a 48-h period and normalized to tumor alone. Readings were obtained every 15 min (representative of four separate experiments). * p<0.05, ** p<0.01, *** p<0.001, and **** p<0.0001.
(§2) ADCC was measured in a flow cytometry assay by evaluating degranulation via CD107a (lysosomal-associated membrane protein LAMP-1) and intracellular IFNγ production. […] Samples were washed and evaluated in an LSRII flow cytometer (BD Biosciences, San Jose, CA, USA).
(§3) The ability of cam1615B7-H3 TriKE to mediate NK cell activity against ovarian cancer cells was evaluated. […]

[2] = test system: OVCAR3 ovarian cancer cells; test: NK cell CD107a / IFNγ flow cytometry against OVCAR3; assay type: cell-based, human; settings: 30 nM, E:T 2:1, 4 hrs; vs no treatment and rhIL-15 alone
Experimental: as §1, with “(N=4).” for “(N=4). FIG. 30D is a graph illustrating pooled proportion of NK cells from healthy donors expressing IFNγ cytokine production against OVCAR3 targets (N=4). FIG. 30E is a graph illustrating pooled proportion of NK cells from healthy donors expressing CD107a+ (degranulation) against OVCAR5 targets (N=7). FIG. 30F is a graph illustrating pooled proportion of NK cells from healthy donors expressing IFNγ cytokine production against OVCAR5 targets (N=7).”
as §2, §3

[3] = Toxicity assessment, weights of NSG mice engrafted with NK cells; assay type: in vivo; settings: irradiated NSG mice, 1 million NK cells, treated three weeks, weights tracked 90 days
Experimental: As illustrated in FIGS. 32A-32F, cam1615B7-H3 TriKE mediates anti-tumor activity in vivo. Determination of in vivo activity is a critical step for translation. However, prior to evaluating the ability of the cam1615B7-H3 TriKE to induce function against tumor the potential for toxicity was assessed. To do this NSG mice were irradiated, engrafted with 1 million NK cells, treated with nothing, IL-15, or cam1615B7-H3 for three weeks, and weights were tracked over the course of 90 days post initial treatment. […] This is not surprising given the low toxicity profile of IL-15 and the safety profile of B7-H3. […] In this model, human NK cells and human high grade serous MA-148-luc cells are injected into the peritoneal cavity of NSG mice.

PC-3 spheroids = test: PC-3 spheroid assay; assay type: cell-based, human
Excerpt: FIG. 18 is a graph illustrating the size of PC-3 spheroids over time.
FIG. 19 is a graph illustrating the size of PC-3 spheroids over time.

Substance | NK cell degranulation against OVCAR8 [1] | NK cell intracellular IFNγ production against OVCAR8 [1] | NK cell degranulation against OVCAR3 [2] | NK cell intracellular IFNγ production against OVCAR3 [2] | body weight vs controls [3] | PC-3 spheroid size over time (PC-3 spheroids) | killing of PC3 spheroids (PC-3 spheroids; photographs, FIG. 20)
cam1615B7-H3: second-generation TriKE: humanized camelid anti-CD16 VHH, human wild-type IL-15, anti-B7-H3 mAb 376.96 scFv; SEQ ID NO:1 | robust | robust | robust | robust | no significant differences | – | –
B7-H3 TriKE: camelid nanobodies targeting CD16 and B7-H3 joined by IL-15 and two linkers; sequence table equates the name with cam1615B7-H3 | – | – | – | – | – | reduce PC-3 spheroid size over time | efficient killing of PC3 spheroids
